From patent publication US10039761B2, “Co-crystals and pharmaceutical compositions comprising the same” (Vertex Pharmaceuticals Incorporated, priority 2013, dated 2018)

How the values were obtained:
[1] = test system: OD26749 primary NSCLC xenograft; assay: OD26749 primary NSCLC xenograft efficacy with whole body IR; type: in vivo, nude mice
Procedure: The in vivo efficacies of Compounds (1) and (2) in combination with whole body IR were examined in the OD26749 primary NSCLC (non-small cell lung cancer) and the OE-19 GEJ cell line xenograft models. In these studies, Compounds (1) and (2) were formulated with 16% captisol/1% PVP/1% HPMC E5 pH2.
The in vivo efficacy of Compound (1) was evaluated in the primary OD26749 NSCLC subcutaneous xenograft model. […] […] Compound (1) was administered PO (tid at 0, 3, and 7 h) at 100 mg/kg alone or with a single 2 Gy dose of whole body IR at 3.25 h. […] Compound (1) in combination with 2 Gy whole body IR induced significant tumor regression (% T/Ti of −75; P<0.01) compared to IR alone.
The efficacies of Compounds (1) and (2) in combination with whole body IR (2 Gy) were evaluated in the OD26749 primary NSCLC xenograft model at a Compound ([…]) and Compound (2) dose levels of 50 mg/kg and 100 mg/kg PO bid (0 and 4 h). Two cycles of whole body IR (2 Gy) were given 15 min after the first compound administration (0.25 hour). Control animals were administered vehicle PO bid (0 and 4 h). […]
(§1) In Tables 14 and 15, for example, PO bid (0, 4 h) indicates Compound (2) is administered twice (bid) at time point 0 and then 4 hours after; IR (0.25 h) qdx3 indicates radiation is administered 15 minutes (0.25 h) after the administration of Compound (2) (0 h), and once a day for 3 days (qdx3); q7dx2 indicates once a week for two weeks; qod indicates every other day twice (e.g., Day 1 and Day 3); and paclitaxel q7dx3 (−0.25 h), carboplatin q7dx3 (−0.25 h) indicates administration of paclitaxel and carboplatin 15 minutes prior to the administration of Compound (2), followed by additional administration of Compound (2) after 4 hours after the first administration of Compound (2).

[2] = Body weight in OE-19 xenograft studies; type: in vivo
Procedure: The OE-19 cell line xenograft model was used to evaluate the efficacy of Compounds (1) and (2) alone and in combination with IR. Two cycles of treatment were administered (Day 0 and Day 7) as performed in the OD26749 model above.

primary human tumors = assay: Primary tumor chemosensitivity assay (TCA), Cell Titer-Glo, Bliss; type: cell-based
Procedure: Primary human tumors tested in vitro may provide a better indicator of efficacy of DNA PK inhibition than immortalized cancer cell lines due to their increased heterogeneity and closer proximity to the patient tumor from which they were derived. […] Dissociated cells from mouse-passaged tumors were cultured for 6 days after combination exposure and then assessed for viability using the Cell Titer-Glo assay. The Bliss Additivity statistical model was used to determine the degree of synergy, additivity, or antagonism of each combination treatment.

[3] = Body weight in OD26749 xenograft studies; type: in vivo, nude mice; conditions: bridging study; Compound (1) PO 100 mg/kg bid (0, 4 h), 2 Gy ([…]) qdx3; Day 1
[4] = Body weight in LU-01-0030 xenograft studies; type: in vivo, mice
Procedure: The in vivo efficacies of Compounds (1) and (2) were evaluated alone and in combination with three consecutive days of focused IR in the primary LU-01-0030 NSCLC subcutaneous xenograft model. The dose-dependent anti-tumor activity of Compound (2) alone and in combination with focused beam IR was evaluated in the LU-01-0030 model. […] Mice in the combination treatment groups were monitored (without treatment) for up to 90 days as some mice had no evidence of tumor burden.

[5] = test system: ST-02-0004 primary GEJ tumor xenograft; assay: ST-02-0004 primary GEJ tumor xenograft efficacy with focused IR; type: in vivo
Procedure: The in vivo activities of Compounds (1) and (2) were compared in combination with focused beam IR in a primary gastric cancer subcutaneous xenograft model. In the ST 02 0004 model, focused IR was administered on three consecutive days alone and in combination with Compound (1) or Compound (2).
The anti-tumor activity of Compound (2) in combination with focused-beam IR and the standard of care agents, paclitaxel and carboplatin, was also evaluated in the ST 02 0004 model. Treatment with paclitaxel, carboplatin, and IR was administered once per week for three weeks alone or in combination with Compound (2).
as §1

[6] = Blood exposure in OD26749 bridging study; type: in vivo, nude mice; conditions: nude, mouse, whole blood; 100 mg/kg PO bid (0 and 4 h) combination groups with 2 Gy whole body IR
[7] = test system: LU-01-0030 primary NSCLC subcutaneous xenograft; assay: LU-01-0030 primary NSCLC xenograft efficacy with focused IR; type: in vivo, mice
Procedure: The in vivo efficacies of Compounds (1) and (2) were evaluated alone and in combination with three consecutive days of focused IR in the primary LU-01-0030 NSCLC subcutaneous xenograft model. The dose-dependent anti-tumor activity of Compound (2) alone and in combination with focused beam IR was evaluated in the LU-01-0030 model.
as §1

CNC(=O)c1ccnc2c([C@H](C)CNc3cc(-c4cnc(C)nc4)ncn3)cccc12 [Compound (1), (S)-N-methyl-8-(1-((2′-methyl-[4,5′-bipyrimidin]-6-yl)amino)propan-2-yl)quinoline-4-carboxamide]
time to tumor doubling (TTD) ([1]; Compound (1) single agent group, 100 mg/kg tid, twice one week apart): 2 to 3 days
% T/C (Day 29) ([1]; PO 50 mg/kg bid (0, 4 h), 2 Gy IR ([…]) q7dx2): 11.7%
% T/Ti (Day 29) ([1]; PO 100 mg/kg bid (0, 4 h), 2 Gy IR ([…]) q7dx2): −3.1%
% T/Ti (Day 16) ([1]; PO 100 mg/kg tid (0, 3, 7 h) q7dx2, 2 Gy q7dx2 (3.25 h) whole body IR): −75%
% T/C (Day 16) ([1]; PO 100 mg/kg tid (0, 3, 7 h) q7dx2, no IR): 74%
time to tumor doubling (TTD) ([1]; combination group: 100 mg/kg tid with 2 Gy whole body IR, given twice one week apart): 33.4 days
Max. body weight loss (%) ([2]; PO 100 mg/kg bid (0, 4 h) qd7x2, 2 Gy IR qd7x2 ([…]), Day 1): −3.50%
Max. body weight loss (%) ([2]; PO 100 mg/kg bid (0, 4 h) qd7x 2, no IR, Day 8): −1.70%
tumors additive or synergistic / tumors tested (primary human tumors; Compound (1) (10× and 30× IC50) with bleomycin or radiation): 29/29
tumors with additivity / tumors tested (primary human tumors; Compound (1) with 5-FU): 5/5
tumors with strong synergy / tumors tested (primary human tumors; Compound (1) with bleomycin): 9/29
tumors with synergy or additivity / tumors tested (primary human tumors; Compound (1) with carboplatin): 5/5
tumors with antagonism (primary human tumors; Compound (1) with cisplatin): one tumor showed antagonism
tumors with synergy or additivity / tumors tested (primary human tumors; Compound (1) with cisplatin): 9/10
tumors with additivity / tumors tested (primary human tumors; Compound (1) with doxorubicin): 1/1
tumors with strong synergy / tumors tested (primary human tumors; Compound (1) with etoposide): 4/4
tumors with additivity / tumors tested (primary human tumors; Compound (1) with gemcitabine): 2/4
tumors with antagonism / tumors tested (primary human tumors; Compound (1) with gemcitabine): 2/4
tumors with additivity / tumors tested (primary human tumors; Compound (1) with paclitaxel): 1/5
tumors with antagonism / tumors tested (primary human tumors; Compound (1) with paclitaxel): 1/5
tumors with strong synergy / tumors tested (primary human tumors; Compound (1) with radiation): 3/8
Max. body wt loss (%) [3]: −2.40%
Max. body wt loss (%) ([4]; Day 24 study, PO 10 mg/kg bid (0, 4 h) qdx3, 2 Gy IR qdx3 ([…]), Day 4): −1.46%
Max. body wt loss (%) ([4]; Day 24 study, PO 25 mg/kg bid (0, 4 h) qdx3, 2 Gy IR qdx3 ([…]), Day 4): −2.03%
Max. body wt loss (%) ([4]; Day 24 study, PO 50 mg/kg bid (0, 4 h) qdx3, 2 Gy IR qdx3 ([…]), Day 4): −1.19%
Max. body wt loss (%) ([4]; Day 24 study, PO 50 mg/kg bid (0, 4 h) qodx2, 2 Gy IR qdx3 ([…]), Day 4): −1.59%
Max. body wt loss (%) ([4]; Day 30 study, PO 100 mg/kg bid (0, 4 h) qdx3, 2 Gy IR ([…]) qdx3, Day 4): −1.42%
Max. body wt loss (%) ([4]; Day 30 study, PO 100 mg/kg tid (0, 3, 7 h) qdx3, 2 Gy IR ([…]) qdx3, Day 4): −1.58%
Max. body wt loss (%) ([4]; Day 30 study, PO 100 mg/kg tid (0, 3, 7 h) qdx5, 2 Gy IR ([…]) qdx3, Day 4): −1.68%
Max. body wt loss (%) ([4]; Day 30 study, PO 100 mg/kg tid (0, 3, 7 h) qdx5, no IR, Day 6): −0.63%
Max. body wt loss (%) ([4]; Day 31 study, PO 10 mg/kg bid (0, 4 h) qdx3, 2 Gy IR ([…]), Day 3): −3.33%
Max. body wt loss (%) ([4]; Day 31 study, PO 50 mg/kg bid (0, 4 h) qdx1, 2 Gy IR ([…]), Day 1): −0.59%
Max. body wt loss (%) ([4]; Day 31 study, PO 50 mg/kg bid (0, 4 h) qdx2, 2 Gy IR ([…]), Day 1): −2.11%
Max. body wt loss (%) ([4]; Day 31 study, PO 50 mg/kg bid (0, 4 h) qdx3, 2 Gy IR ([…]), Day 3): −0.94%
Max. body wt loss (%) ([4]; Day 31 study, PO 50 mg/kg qdx3, 2 Gy IR ([…]), Day 1): −2.07%
Max. body wt loss (%) ([4]; first Day 27 study, PO 25 mg/kg bid (0, 4 h) qdx3, 2 Gy ([…]) IR qdx3, Day 2): −5.81%
Max. body wt loss (%) ([4]; first Day 27 study, PO 50 mg/kg bid (0, 4 h) qdx3, 2 Gy ([…]) IR qdx3, Day 3): −5.70%
Max. body wt loss (%) ([4]; first Day 27 study, PO 100 mg/kg bid (0, 4 h) qdx3, 2 Gy ([…]) IR qdx3, Day 3): −2.87%
Max. body wt loss (%) ([4]; first Day 27 study, PO 100 mg/kg qdx3, 2 Gy ([…]) IR qdx3, Day 2): −3.68%
Max. body wt loss (%) ([4]; second Day 27 study, PO 10 mg/kg bid (0, 4 h) qdx3, 2 Gy ([…]) IR qdx3, Day 2): −5.81%
Max. body wt loss (%) ([4]; second Day 27 study, PO 25 mg/kg bid (0, 4 h) qdx3, 2 Gy ([…]) IR qdx3, Day 3): −5.70%
Max. body wt loss (%) ([4]; second Day 27 study, PO 50 mg/kg bid (0, 4 h) qdx2, 2 Gy ([…]) IR qdx3, Day 3): −2.87%
Max. body wt loss (%) ([4]; second Day 27 study, PO 50 mg/kg bid (0, 4 h) qdx3, 2 Gy ([…]) IR qdx3, Day 2): −3.68%
% T/Ti (Day 34) ([5]; Compound (1) PO 100 mg/kg bid (0, 4 h) qdx3, 2 Gy IR ([…]) focused): −2.8%
% T/C (Day 34) ([5]; Compound (1) PO 100 mg/kg qdx3, no IR): 95.6%
AUC [6]: 65800 ng·h/mL
% T/Ti (Day 31) ([7]; PO 10 mg/kg bid (0, 4 h) qdx3, 2 Gy IR ([…])): −5.3%
% T/Ti (Day 24) ([7]; PO 10 mg/kg bid (0, 4 h) qdx3, 2 Gy IR qdx3 ([…])): −29.8%
% T/Ti (Day 24) ([7]; PO 25 mg/kg bid (0, 4 h) qdx3, 2 Gy IR qdx3 ([…])): −75.2%
% T/C (Day 31) ([7]; PO 50 mg/kg bid (0, 4 h) qdx1, 2 Gy IR ([…])): 7.2%
% T/Ti (Day 31) ([7]; PO 50 mg/kg bid (0, 4 h) qdx2, 2 Gy IR ([…])): −1.7%
% T/Ti (Day 31) ([7]; PO 50 mg/kg bid (0, 4 h) qdx3, 2 Gy IR ([…])): −14.1%
% T/Ti (Day 24) ([7]; PO 50 mg/kg bid (0, 4 h) qdx3, 2 Gy IR qdx3 ([…])): −87.6%
% T/Ti (Day 24) ([7]; PO 50 mg/kg bid (0, 4 h) qodx2, 2 Gy IR qdx3 ([…])): −79.9%
% T/C (Day 31) ([7]; PO 50 mg/kg qdx3, 2 Gy IR ([…])): 4.5%
% T/Ti (Day 30) ([7]; PO 100 mg/kg bid (0, 4 h) qdx3, 2 Gy IR ([…]) qdx3): −85.6%
% T/Ti (Day 30) ([7]; PO 100 mg/kg tid (0, 3, 7 h) qdx3, 2 Gy IR ([…]) qdx3): −90.6%
% T/Ti (Day 30) ([7]; PO 100 mg/kg tid (0, 3, 7 h) qdx5, 2 Gy IR ([…]) qdx3): −91.6%
% T/C (Day 30) ([7]; PO 100 mg/kg tid (0, 3, 7 h) qdx5, no IR): 79.1%
% T/Ti (Day 27) ([7]; first Day 27 study, PO 25 mg/kg bid (0, 4 h) qdx3, 2 Gy ([…]) IR qdx3): −80.3%
% T/Ti (Day 27) ([7]; first Day 27 study, PO 50 mg/kg bid (0, 4 h) qdx3, 2 Gy ([…]) IR qdx3): −87.8%
% T/Ti (Day 27) ([7]; first Day 27 study, PO 100 mg/kg bid (0, 4 h) qdx3, 2 Gy ([…]) IR qdx3): −90.1%
% T/Ti (Day 27) ([7]; first Day 27 study, PO 100 mg/kg qdx3, 2 Gy ([…]) IR qdx3): −76.5%
% T/Ti (Day 27) ([7]; second Day 27 study, PO 10 mg/kg bid (0, 4 h) qdx3, 2 Gy ([…]) IR qdx3): −80.3%
% T/Ti (Day 27) ([7]; second Day 27 study, PO 25 mg/kg bid (0, 4 h) qdx3, 2 Gy ([…]) IR qdx3): −87.8%
% T/Ti (Day 27) ([7]; second Day 27 study, PO 50 mg/kg bid (0, 4 h) qdx2, 2 Gy ([…]) IR qdx3): −90.1%
% T/Ti (Day 27) ([7]; second Day 27 study, PO 50 mg/kg bid (0, 4 h) qdx3, 2 Gy ([…]) IR qdx3): −76.5%
